Series [1] in a line: Size (diameter) and PDI of lipid nanoparticles by Dynamic Light Scattering. It is filed as physicochemical. The note with it: lipid nanoparticles of the ionizable lipid; diluted with PBS to mRNA 1 μg/mL; DLS. Here is the method:
(§1) The size and surface charge of lipid nanoparticles according to the ionizable lipid prepared in Example 1 were measured. To measure the size of the lipid nanoparticles, dilution was conducted using PBS to reach the concentration of mRNA contained in each lipid nanoparticle to 1 μg/mL, and Dynamic Light Scattering (DLS) of Malvern Zetasizer Nano (Malvern Instruments, UK) was applied to measure the diameter and a polydispersity index (hereinafter referred to as PDI) of lipid nanoparticles. In addition, in order to measure the surface charge of lipid nanoparticles, dilution was conducted using PBS to reach the concentration of mRNA contained in each lipid nanoparticle to 1 μg/mL, and the surface charge (zeta potential) was measured using the same equipment as above.

Series [2] can be described thus: Gene encapsulation efficiency, Quant-iT Ribogreen RNA Reagent and Kit. In kind it is physicochemical. The note with it: lipid nanoparticles, TE buffer vs 2% Triton-TE buffer. Here is the method: To determine a gene encapsulation efficiency of lipid nanoparticles, the Quant-iT™ Ribogreen™ RNA Reagent and Kit was used. A stock solution for the calibration curve was prepared by taking 5 μL of the ribosomal RNA standard (100 μg/mL in TE buffer) and diluting it with either 245 μL of TE buffer or 0.4% Triton-TE buffer, respectively. Aliquots of 2, 5, 10, 25, and 50 μL of the stock solution were taken, diluted with TE buffer or 0.4% Triton-TE buffer to achieve a total volume of 100 μL, and then mixed with 100 μL of Quant-iT™ Ribogreen™ RNA Reagent; the fluorescence intensity (excitation 475 nm and emission 500˜550 nm) was measured to create a calibration curve. A volume of 5 μL of the nanoparticle solution prepared in Example 2 was taken and diluted with 245 μL of TE buffer (10 mM Tris-HCl, 1 mM EDTA, pH 7.5 in DEPC-treated water). After 50 μL of TE buffer or 50 μL of 2% Triton-TE buffer was added to 50 μL of the diluted nanoparticle solution, respectively, the mixture was incubated at 37° C. for about 10 minutes. Afterwards, 40 μL of each mixture was transferred to a microplate, and 60 μL of TE buffer and 100 μL of Quant-iT™ Ribogreen™ RNA Reagent were added sequentially to measure the fluorescence intensity. After calculating the gene dosage (T0) in the TE buffer and the gene dosage (T2) in the 2% Triton-TE buffer by substituting the measured fluorescence intensity into the calibration curve, the gene encapsulation efficiency was calculated using the following Mathematical Equation 1.

The subject of series [3] is HeLa cells. The experiment in a line: Intracellular gene delivery efficacy of FLuc mRNA-LNP (luciferase expression). It is filed as cell-based, human. The note with it: 0.25 μg/ml encapsulated FLuc mRNA, 6 hours. On the procedure:
To determine the intracellular gene delivery efficacy of lipid nanoparticles, lipid nanoparticles encapsulated with FLuc mRNA(Fluc mRNA-LNP) were used. To evaluate the gene delivery efficacy, HeLa cells (Korea Cell Line Bank, Seoul), human cervical cancer cell lines expressing low-density lipoprotein (LDL) receptors on the cell surface, were used, and cultured with the MEM medium containing 10% fetal bovine serum and penicillin/streptomycin at 37° C. in the presence of 5% CO2. HeLa cell lines were seeded at 2×10^4 cells per well in a 96-well plate, and after 16˜24 hours, the cells were treated with lipid nanoparticles at a concentration of 0.25 μg/ml based on encapsulated mRNA, in a total volume of 100 μl MEM medium per well in the absence or the presence of 10% fetal bovine serum (FBS).
To measure the expression of intracellular luciferase after FLuc mRNA delivery by lipid nanoparticles, the cells were washed with PBS after 6 hours of treatment. Then, and 100 μl of Glo-Lysis Buffer (Promega, WI, USA) was added to lyse the cells at room temperature for 5 minutes. The lysed cells were added with 100 μl of Steady-Glo™ Luciferase Assay solution (Promega) in a 1:1 ratio, left at room temperature for 5 minutes, and then transferred to a 96-well white plate. Luminescent values were detected using a GloMax Discover microplate reader (Promega). Recombinant luciferase (Promega) was used as the standard material to generate the calibration curve, which was used to determine the luciferase concentration (pg/ml) in the samples.

A short description of series [4]: Surface charge (zeta potential) of lipid nanoparticles. In kind it is physicochemical. As to conditions: diluted with PBS to mRNA 1 μg/mL. On the procedure:
as §1

In series [5] the test system is mice of the C57BL/6 lineage. The experiment in a line: Gene delivery efficiency in vivo, intravenous injection, liver luciferase expression. As to conditions: C57BL/6 mice, after 4 hours. Here is the method: (§2) In order to identify the gene delivery efficacy and distribution of lipid nanoparticles in vivo, lipid nanoparticles were injected into 7-week-old mice of the C57BL/6 lineage either intravenously or intramuscularly in the thigh. The liver was extracted in the case of intravenous injection and the organs including the femoral muscle were extracted in the case of intramuscular injection by sacrificing the mice after 4 hours.
(§3) To determine the level of luciferase expression in tissue samples, the tissue sections were weighed and transferred to a tube containing 3 mm metal beads, and a homogenized by adding 500 μl of Glo-Lysis Buffer (Promega) per 50 mg of tissue. The supernatant from the centrifuged homogenates was collected and diluted with the Glo-Lysis Buffer to an appropriate ratio. The diluted homogenates and the Steady-Glo Luciferase Assay solution were then mixed in a 1:1 ratio, with 50 μl of each. After a 5-minute incubation, the luminescence values of luciferase were measured using the same method as described in Example 3-1, and the expression levels (ng/g tissue) of luciferase were calculated.

The subject of series [6] is mice of the C57BL/6 lineage. Description: Gene delivery efficiency in vivo, intramuscular injection in the thigh, muscle luciferase expression. As to conditions: femoral muscle, C57BL/6 mice, after 4 hours. Here is the method:
as §2, §3

Take `CCCCCCCCC(CCCCCC)C(=O)OCCCCCCN(CCCCCCOC(=O)C(CCCCCC)CCCCCCCC)CCC1CCNCC1` (centres unmarked) [Compound 1, ((2-(piperidin-4-yl)ethyl)azanediyl)bis(hexane-6,1-diyl) bis(2-hexyldecanoate)]: the PDI in series [1] was 0.09. This molecule gave a Particle size in series [1] of 121 nm. For the same molecule, in series [2], the Gene encapsulation efficiency worked out at 99.7%. For the same molecule, the figures for the “Luciferase expression level (Mean ± SD)” value in series [3] (10% FBS) and in series [3] (w/o FBS) were 16,060 ± 102 pg/ml and 16,685 ± 646 pg/ml, respectively. Also, the “Surface Charge” value in series [4] was “+29.1 mV”.
In series [1], `CCCCCCCCC(CCCCCC)C(=O)OCCCCCCN(CCCCCCOC(=O)C(CCCCCC)CCCCCCCC)CCN1CCNCC1` (centres unmarked) [Compound 2, ((2-(piperazin-1-yl)ethyl)azanediyl)bis(hexane-6,1-diyl) bis(2-hexyldecanoate)] gave a PDI of 0.12 and a Particle size of 106 nm. The molecule also displayed a Gene encapsulation efficiency in series [2] of 94.9%. Moreover, the “Luciferase expression level (Mean ± SD)” value in series [3] (10% FBS) is 8,492 ± 2,375 pg/ml. Further, the “Luciferase expression level (Mean ± SD)” value in series [3] (w/o FBS) is on record as 15,270 ± 2,273 pg/ml. Further, the “Surface Charge” value in series [4] was “+28.1 mV”.
In series [1], `CCCCCCCCC(CCCCCC)C(=O)OCCCCCCN(CCCCCCOC(=O)C(CCCCCC)CCCCCCCC)Cc1ccc(N)cc1` (centres unmarked) [Compound 3, ((4-aminobenzyl)azanediyl)bis(hexane-6,1-diyl) bis(2-hexyldecanoate)] came in with a PDI of 0.18 and a Particle size of 78 nm. For the same molecule, the Gene encapsulation efficiency in series [2] is 93.8%. Besides, the “Surface Charge” value in series [4] is given as −1.4 mV.
Consider `CCCCCCCCC(CCCCCC)C(=O)OCCCCCCN(CCCCCCOC(=O)C(CCCCCC)CCCCCCCC)CCc1ccc(N)nc1` (centres unmarked) [Compound 4, ((2-(6-aminopyridin-3-yl)ethyl)azanediyl)bis(hexane-6,1-diyl) bis(2-hexyldecanoate)], for which the “Luciferase expression level (Mean ± SD)” value in series [5] is given as 6,844 ± 2,052 ng/g. Further, in series [1], the PDI was 0.13 and the Particle size amounted to 84 nm. Further, the Gene encapsulation efficiency in series [2] is on record as 78.2%. Besides, the “Surface Charge” value in series [4] is “+2.0 mV”.
For `CCCCCCCCC(CCCCCC)C(=O)OCCCCCCN(CCCCCCOC(=O)C(CCCCCC)CCCCCCCC)CCCn1ccnc1C` (centres unmarked) [Compound 5, ((3-(2-methyl-1H-imidazol-1-yl)propyl)azanediyl)bis(hexane-6,1-diyl) bis(2-hexyldecanoate)], the “Luciferase expression level (Mean ± SD)” value in series [5] is 2,582 ± 745 ng/g. Also, in series [1], the PDI was 0.08 and the Particle size stood at 104 nm. Also, in series [2], the Gene encapsulation efficiency is 93.5%. In series [6], the “Luciferase expression level (Mean ± SD)” value was 651 ± 158 ng/g. In addition, in series [4], the “Surface Charge” value was “+19.9 mV”.
Regarding `CCCCCCCCC(CCCCCC)C(=O)OCCCCCCN(CCCCCCOC(=O)C(CCCCCC)CCCCCCCC)CCCn1cc(C)nc1C` (centres unmarked) [Compound 6, ((3-(2,4-dimethyl-1H-imidazol-1-yl)propyl)azanediyl)bis(hexane-6,1-diyl)bis(2-hexyldecanoate)], the “Luciferase expression level (Mean ± SD)” value in series [5] was 1,172 ± 99 ng/g; in series [6], 358 ± 74 ng/g.

The values are drawn from US20250230131A1, “NOVEL IONIZABLE LIPID AND LIPID NANOPARTICLE COMPOSITION USING SAME” (MediciBIO Co., Ltd, priority 2022, published 2025).
